From PubChem BioAssay AID1411 (The Scripps Research Institute Molecular Screening Center, 2008)
The source made the active and inactive calls. How the calls were made is not given here.

Target: Signal transducer and activator of transcription 1-alpha/beta (Homo sapiens) (UniProt P42224)
Experiment: STAT1 reporter inhibitors, potency curves, dose response, counter-screen for STAT3 inhibitor project, cell-based, NIH 3T3, luciferase reporter (AID 1411)
Settings: NIH 3T3 fibroblasts, counterscreen

Chain of Signal transducer and activator of transcription 1-alpha/beta (Homo sapiens) (P42224 whole entry, looked up): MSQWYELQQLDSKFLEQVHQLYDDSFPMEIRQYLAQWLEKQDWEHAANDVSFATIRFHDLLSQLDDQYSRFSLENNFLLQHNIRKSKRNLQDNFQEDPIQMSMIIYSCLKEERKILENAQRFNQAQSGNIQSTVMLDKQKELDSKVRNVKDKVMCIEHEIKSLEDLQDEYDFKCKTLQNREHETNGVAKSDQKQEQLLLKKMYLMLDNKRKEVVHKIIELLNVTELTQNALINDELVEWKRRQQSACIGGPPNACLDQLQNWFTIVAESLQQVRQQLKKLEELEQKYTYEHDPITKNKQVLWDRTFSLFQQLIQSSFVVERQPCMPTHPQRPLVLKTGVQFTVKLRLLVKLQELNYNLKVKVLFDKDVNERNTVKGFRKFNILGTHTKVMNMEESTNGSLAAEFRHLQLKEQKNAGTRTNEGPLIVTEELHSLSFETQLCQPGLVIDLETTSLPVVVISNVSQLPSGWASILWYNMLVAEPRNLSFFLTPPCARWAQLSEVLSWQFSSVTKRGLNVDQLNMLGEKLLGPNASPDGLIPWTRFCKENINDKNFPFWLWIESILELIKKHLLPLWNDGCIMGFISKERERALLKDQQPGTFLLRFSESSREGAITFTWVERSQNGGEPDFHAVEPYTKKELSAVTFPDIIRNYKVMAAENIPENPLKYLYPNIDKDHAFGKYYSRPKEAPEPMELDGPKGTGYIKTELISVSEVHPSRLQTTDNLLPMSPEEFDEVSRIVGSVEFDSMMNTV

C[C@H]1CCC[C@@H](O)CCC/C=C/c2cc(O)cc(O)c2C(=O)O1
IC50: > 55.7 µM (inactive)

CN(C)S(=O)(=O)Oc1cccc(C(=O)Nc2ccc(Cl)cc2)c1
IC50: > 55.7 µM (inactive)

O=C(Nc1cccc(Cl)c1)Nc1ccnc(-c2cccnc2)n1
IC50: > 55.7 µM (inactive)

CCOC(=O)Cc1csc(SCC(=O)c2c(N)n(CC(C)C)c(=O)n(C)c2=O)n1
IC50: > 55.7 µM (inactive)

O=C(Nc1cccc(S(=O)(=O)Nc2ccccc2Cl)c1)c1ccc(Cl)nc1
IC50: > 55.7 µM (inactive)

CNc1ccccc1C(C)(C)c1cc(-c2ccc(F)cc2)no1
IC50: > 55.7 µM (inactive)

COc1ccc(/C=N/NC(=S)Nc2cccc(C(=O)O)c2)cc1
IC50: inactive

O=C(Nc1nc(-c2ccc(Cl)s2)cs1)c1ccncc1
IC50: > 55.7 µM (inactive)

Cc1nc(CNS(=O)(=O)c2ccc(Oc3ccccc3)cc2)cs1
IC50: > 55.7 µM (inactive)

Cc1ccc(-c2cn3cc([N+](=O)[O-])ccc3n2)cc1
IC50: > 18.6 µM (inactive)

O=C(Nc1cccc(O)c1)c1noc2c1CCc1ccccc1-2
IC50: inactive

Cc1cccc(N2CCN(C(=O)CSCc3c(C)noc3C)CC2)c1C
IC50: > 55.7 µM (inactive)

Cn1c(=O)oc2cc(S(=O)(=O)N3CCCC(C(=O)N4CC=C(c5ccccc5)CC4)C3)ccc21 (centres undefined)
IC50: > 55.7 µM (inactive)

O=C1CCCN1c1ccc(S(=O)(=O)N2CCC(c3ccccc3)CC2)cc1
IC50: > 55.7 µM (inactive)

Cc1ccc(S(=O)(=O)N(C)c2ccc(C(=O)N3CCN(Cc4ccc5c(c4)OCO5)CC3)cc2)cc1
IC50: > 55.7 µM (inactive)

C[C@@H]1O[C@@H](O[C@H]2C[C@@H](O)[C@]3(CO)[C@H]4[C@H](O)C[C@]5(C)[C@@H](C6=CC(=O)OC6)CC[C@]5(O)[C@@H]4CC[C@]3(O)C2)[C@H](O)[C@H](O)[C@H]1O
IC50: > 55.7 µM (inactive)

O=C(Nc1ccc(N2CCN(C(=O)c3ccco3)CC2)c(Cl)c1)c1cc2ccccc2o1
IC50: inactive

COc1ccc(CC(=O)Nc2cccc(-c3nnc(-c4cccc(C)c4)o3)c2)cc1OC
IC50: inactive

O=C(COC(=O)c1n[nH]c2ccccc12)Nc1ccc(S(=O)(=O)N2CCCC2)cc1
IC50: > 55.7 µM (inactive)
